Tests used:
Assay type in all cases: cell-based
[1] = tested on: Human polymorphonuclear (PMN) granulocytes; experiment: Inhibition of PMN superoxide secretion (ferricytochrome C reduction, TNF-α primed, fMLP stimulated); settings: fMLP 10^−7 M, read-out: The median inhibition concentration (IC50, nM) of PMN-superoxide
Method: The compounds of the present invention also show similar activities in the ability to inhibit PMN (polymorphonuclear) superoxide secretion which is also indicative of potentially useful anti-inflammatory drugs. The compounds were tested using the following procedure. Human polymorphonuclear (PMN) granulocytes were isolated from human blood by dextran sedimentation, Lymphoprep® fractionation, and hypotonic lysis of contaminating erythrocytes. Superoxide anion generation was measured as the superoxide dismutase inhabitable reduction of ferricytochrome C (Madhu, S. B. et al, Inflammation, 16, 241, (1992)). The cells were suspended in Hank's balanced salt solution, and incubated for 10 minutes at 37° C. with test compounds. The cells were primed by the addition of TNF-α (3 ng/ml final concentration) for 10 minutes, and then ferricytochrome C, (final concentration 750 μg/ml), bovine serum albumin (BSA, final concentration 1 mg/ml) and formyl-methionyl-leucyl-phenylalanine (fMLP, final concentration 10^−7 M) were added for 3 minutes. The cells were chilled on ice, and were spun down. The optical densities in the cell-free supernatant was measured in a spectrophotometer. The median inhibitory concentration (IC50) of the compounds was calculated.

TNF-α secretion = experiment: Inhibition of TNF-α secretion in LPS stimulated peripheral blood mononuclear cells; settings: PBMC; LPS stimulated human peripheral blood mononuclear cells, 18 hours, ELISA; read-out: The median inhibition concentration (IC50, nM) of TNF-α
Method: (§1) To study the effect of the compound of the present invention in vitro the inhibition of the IL-1β and TNF-α secretion was measured using the following procedure:
(§2) Cytokine production was measured in the media from lipopolysaccharide (LPS) stimulated peripheral blood mononuclear cells. The mononuclear cells were isolated from human peripheral blood by Lymphoprep® (Nycomed, Norway) fractionation and suspended in RPMI 1640 (growth medium) with foetal calv serum (FCS, 2%), at a concentration of 5×10^5 cells/ml. The cells were incubated in 24-well tissue culture plates in 1 ml aliquots. Test compounds were dissolved in dimethylsulfoxide (DMSO, 10 mM) and were diluted with the medium. Compounds were added to the cells for 30 minutes, then LPS ([…] final concentration) was added. The plates were incubated for 18 hours, and the concentration of IL-1β and TNF-α in the medium was determined by enzyme-linked immunosorbent assays. The median inhibitory concentrations (IC50) of the compounds were calculated.

IL-1β secretion = experiment: Inhibition of IL-1β secretion in LPS stimulated peripheral blood mononuclear cells; settings: PBMC; LPS stimulated human peripheral blood mononuclear cells, 18 hours, ELISA; read-out: The median inhibition concentration (IC50, nM) of IL-1β
Method: as §1, §2

IC50 [1] [nM]	IC50 (TNF-α secretion) [nM]	IC50 (IL-1β secretion) [nM]	SMILES
63	25	200	Cc1ccccc1C(=O)c1ccc(Nc2ccccc2NC(=O)CCC(=O)O)cc1Cl [Compound 101, N-[2-[3-Chloro-4-(2-methylbenzoyl)-phenylamino]phenyl]-succinamic Acid]
5	6.3	6.3	CCCCCCCC(=O)Nc1ccccc1Nc1ccc(C(=O)c2ccccc2C)c(Cl)c1 [Compound 102, 2′-[3-Chloro-4-(2-methylbenzoyl)-phenylamino]octananilide]
